Experiments:
Assay in all cases: relative viability (nuclei count vs DMSO), 5 days (fraction); higher = more cells survive
NCI-H2023 = tested on: NCI-H2023
Method in brief: (§1)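 Dosing by pin tool came one day after lung cancer cell lines were seeded in 1536-well plates, using either one drug or a fixed anchor-drug dose plus five library-drug doses (not always all listed) in √10 steps. After 5 days, nuclei were counted on 4× images. Relative viability is treated-well nuclei count divided by vehicle-well nuclei count, and values are medians of duplicate plates.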

NCI-H2405 = tested on: NCI-H2405
Method in brief: as §1

NCI-H2170 = tested on: NCI-H2170
Method in brief: as §1

NCI-H1734 = tested on: NCI-H1734
Method in brief: as §1

NCI-H647 = tested on: NCI-H647
Method in brief: as §1

LOU-NH91 = tested on: LOU-NH91
Method in brief: as §1

EPLC-272H = tested on: EPLC-272H
Method in brief: as §1

SW 900 = tested on: SW 900
Method in brief: as §1

PC-14 = tested on: PC-14
Method in brief: as §1

NCI-H1793 = tested on: NCI-H1793
Method in brief: as §1

NCI-H2347 = tested on: NCI-H2347
Method in brief: as §1

NCI-H441 = tested on: NCI-H441
Method in brief: as §1

HCC-15 = tested on: HCC-15
Method in brief: as §1

NCI-H3122 = tested on: NCI-H3122
Method in brief: as §1

COR-L23 = tested on: COR-L23
Method in brief: as §1

NCI-H322M = tested on: NCI-H322M
Method in brief: as §1

H3255 = tested on: H3255
Method in brief: as §1

UMC-11 = tested on: UMC-11
Method in brief: as §1

NCI-H520 = tested on: NCI-H520
Method in brief: as §1

NCI-H1650 = tested on: NCI-H1650
Method in brief: as §1

201T = tested on: 201T
Method in brief: as §1

## O=c1cc(-c2cccc3c2Sc2ccccc2S3)oc(N2CCOCC2)c1 + Nc1ncn([C@H]2C[C@H](O)[C@@H](CO)O2)c(=O)n1 [Decitabine] (partner 2 µM)
NCI-H2023; first compound 0.08 µM
  relative viability: 0.214
NCI-H2023; first compound 0.253 µM
  relative viability: 0.276
NCI-H2023; first compound 0.8 µM
  relative viability: 0.25
NCI-H2023; first compound 2.53 µM
  relative viability: 0.245
NCI-H2023; first compound 8 µM
  relative viability: 0.229
NCI-H2405; first compound 0.08 µM
  relative viability: 0.697
NCI-H2405; first compound 0.253 µM
  relative viability: 0.864
NCI-H2405; first compound 0.8 µM
  relative viability: 0.677
NCI-H2405; first compound 2.53 µM
  relative viability: 0.695
NCI-H2405; first compound 8 µM
  relative viability: 0.756
NCI-H2170; first compound 0.08 µM
  relative viability: 0.439
NCI-H2170; first compound 0.253 µM
  relative viability: 0.524
NCI-H2170; first compound 0.8 µM
  relative viability: 0.48
NCI-H2170; first compound 2.53 µM
  relative viability: 0.424
NCI-H2170; first compound 8 µM
  relative viability: 0.465
NCI-H1734; first compound 0.08 µM
  relative viability: 0.452
NCI-H1734; first compound 0.253 µM
  relative viability: 0.574
NCI-H1734; first compound 0.8 µM
  relative viability: 0.528
NCI-H1734; first compound 8 µM
  relative viability: 0.512
NCI-H647; first compound 0.08 µM
  relative viability: 0.428
NCI-H647; first compound 0.253 µM
  relative viability: 0.534
NCI-H647; first compound 0.8 µM
  relative viability: 0.414
NCI-H647; first compound 2.53 µM
  relative viability: 0.403
NCI-H647; first compound 8 µM
  relative viability: 0.45
LOU-NH91; first compound 0.08 µM
  relative viability: 0.777
LOU-NH91; first compound 0.253 µM
  relative viability: 0.894
LOU-NH91; first compound 0.8 µM
  relative viability: 0.784
LOU-NH91; first compound 2.53 µM
  relative viability: 0.777
LOU-NH91; first compound 8 µM
  relative viability: 0.844
EPLC-272H; first compound 0.08 µM
  relative viability: 0.341
EPLC-272H; first compound 0.253 µM
  relative viability: 0.409
EPLC-272H; first compound 0.8 µM
  relative viability: 0.363
EPLC-272H; first compound 2.53 µM
  relative viability: 0.343
EPLC-272H; first compound 8 µM
  relative viability: 0.366
SW 900; first compound 0.253 µM
  relative viability: 0.453
SW 900; first compound 0.8 µM
  relative viability: 0.414
SW 900; first compound 2.53 µM
  relative viability: 0.428
SW 900; first compound 8 µM
  relative viability: 0.433
PC-14; first compound 0.08 µM
  relative viability: 0.213
PC-14; first compound 0.253 µM
  relative viability: 0.19
PC-14; first compound 0.8 µM
  relative viability: 0.185
PC-14; first compound 2.53 µM
  relative viability: 0.165
PC-14; first compound 8 µM
  relative viability: 0.217
NCI-H1793; first compound 0.08 µM
  relative viability: 0.536
NCI-H1793; first compound 0.253 µM
  relative viability: 0.614
NCI-H1793; first compound 0.8 µM
  relative viability: 0.478
NCI-H1793; first compound 2.53 µM
  relative viability: 0.487
NCI-H1793; first compound 8 µM
  relative viability: 0.476
NCI-H2347; first compound 0.08 µM
  relative viability: 0.606
NCI-H2347; first compound 0.253 µM
  relative viability: 0.663
NCI-H2347; first compound 0.8 µM
  relative viability: 0.627
NCI-H2347; first compound 2.53 µM
  relative viability: 0.616
NCI-H2347; first compound 8 µM
  relative viability: 0.629
NCI-H441; first compound 0.08 µM
  relative viability: 0.221
NCI-H441; first compound 0.253 µM
  relative viability: 0.232
NCI-H441; first compound 0.8 µM
  relative viability: 0.223
NCI-H441; first compound 2.53 µM
  relative viability: 0.257
NCI-H441; first compound 8 µM
  relative viability: 0.265
HCC-15; first compound 0.08 µM
  relative viability: 0.677
HCC-15; first compound 0.253 µM
  relative viability: 0.807
HCC-15; first compound 0.8 µM
  relative viability: 0.64
HCC-15; first compound 2.53 µM
  relative viability: 0.589
HCC-15; first compound 8 µM
  relative viability: 0.579
NCI-H3122; first compound 0.08 µM
  relative viability: 0.36
NCI-H3122; first compound 0.253 µM
  relative viability: 0.551
NCI-H3122; first compound 0.8 µM
  relative viability: 0.45
NCI-H3122; first compound 2.53 µM
  relative viability: 0.38
NCI-H3122; first compound 8 µM
  relative viability: 0.534
COR-L23; first compound 0.08 µM
  relative viability: 0.429
COR-L23; first compound 0.253 µM
  relative viability: 0.513
COR-L23; first compound 0.8 µM
  relative viability: 0.386
COR-L23; first compound 2.53 µM
  relative viability: 0.508
COR-L23; first compound 8 µM
  relative viability: 0.588
NCI-H322M; first compound 0.08 µM
  relative viability: 0.661
NCI-H322M; first compound 0.253 µM
  relative viability: 0.73
NCI-H322M; first compound 0.8 µM
  relative viability: 0.742
NCI-H322M; first compound 2.53 µM
  relative viability: 0.634
NCI-H322M; first compound 8 µM
  relative viability: 0.749
H3255; first compound 0.08 µM
  relative viability: 0.653
H3255; first compound 0.253 µM
  relative viability: 0.68
H3255; first compound 0.8 µM
  relative viability: 0.631
H3255; first compound 2.53 µM
  relative viability: 0.558
H3255; first compound 8 µM
  relative viability: 0.689
UMC-11; first compound 0.08 µM
  relative viability: 0.599
UMC-11; first compound 0.253 µM
  relative viability: 0.567
UMC-11; first compound 0.8 µM
  relative viability: 0.585
UMC-11; first compound 2.53 µM
  relative viability: 0.613
UMC-11; first compound 8 µM
  relative viability: 0.712
NCI-H520; first compound 0.08 µM
  relative viability: 0.518
NCI-H520; first compound 0.253 µM
  relative viability: 0.623
NCI-H520; first compound 0.8 µM
  relative viability: 0.577
NCI-H520; first compound 2.53 µM
  relative viability: 0.499
NCI-H520; first compound 8 µM
  relative viability: 0.548
NCI-H1650; first compound 0.08 µM
  relative viability: 0.415
NCI-H1650; first compound 0.253 µM
  relative viability: 0.511
NCI-H1650; first compound 0.8 µM
  relative viability: 0.416
NCI-H1650; first compound 2.53 µM
  relative viability: 0.365
NCI-H1650; first compound 8 µM
  relative viability: 0.374
201T; first compound 0.08 µM
  relative viability: 0.855
201T; first compound 0.253 µM
  relative viability: 0.882
201T; first compound 0.8 µM
  relative viability: 0.893
201T; first compound 2.53 µM
  relative viability: 0.816
201T; first compound 8 µM
  relative viability: 0.744

Reference: the supplement of paper PMC10307832
